Measured values as given in publication PMC2191300 (The Journal of Experimental Medicine, 1993).

Each substance was assayed against I-Ak (Mus musculus, UniProt P01910+P06343) (assay: Percent of I-Ak occupied by each eluted self-peptide). Conditions: I-Ak from thymus (cortical plus medullary epithelium) of C3H/HeJ mice; Table 1.
Sequence of I-Ak (P01910 whole entry, looked up): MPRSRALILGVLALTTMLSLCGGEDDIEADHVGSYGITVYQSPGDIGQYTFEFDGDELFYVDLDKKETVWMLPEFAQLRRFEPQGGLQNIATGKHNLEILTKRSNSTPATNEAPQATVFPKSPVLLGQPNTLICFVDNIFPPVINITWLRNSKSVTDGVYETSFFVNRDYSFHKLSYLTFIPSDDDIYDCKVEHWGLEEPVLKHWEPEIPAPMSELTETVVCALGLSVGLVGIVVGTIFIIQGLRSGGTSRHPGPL
Sequence of I-Ak (P06343 whole entry, looked up): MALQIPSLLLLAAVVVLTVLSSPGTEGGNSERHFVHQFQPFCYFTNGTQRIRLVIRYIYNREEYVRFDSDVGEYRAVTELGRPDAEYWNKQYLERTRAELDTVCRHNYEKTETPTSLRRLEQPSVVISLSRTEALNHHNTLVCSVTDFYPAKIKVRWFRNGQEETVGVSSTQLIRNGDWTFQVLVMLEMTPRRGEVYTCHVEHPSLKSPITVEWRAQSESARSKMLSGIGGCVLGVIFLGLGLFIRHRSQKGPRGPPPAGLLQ

| Substance | Percent of MHC occupied in Thymus [%] |
| --- | --- |
| k kGTD_FQLNQLEGKKG [Transferrin 103-] | 0.2 |
| r sYLD_AwVcEQLAT [Fce Receptor 11 298-] | < 0.1 |
| a vvKKGTD_FQLNQLE [Transferrin 100-] | 0.3 |
| e yiLYNKGIMGEdSYPY [Cathepsin H 77-] | 0.2 |
| n serHFV_HQFQPFcyF [A~ 3-] | < 0.1 |

Second part, the substance after the results:

| Percent of MHC occupied in Thymus [%] | Substance |
| --- | --- |
| < 0.1 | xP_IDDGGIEA |
| 0.2 | xPL_ALQFAELPVNKG |
| < 0.1 | xQLGA_QNEMLxPV |
